Reference: US3960863A, “Pyrido[1,2-a]pyrimidinone derivatives” (Sankyo Company Limited, priority 1974, dated 1976)
Read-outs that look alike come from different tables or passages of the source.

Tests used:
[1] = tested on: Thiopental-induced Anesthesia; experiment: Potentiating effect of thiopental-induced anesthesia (anesthesia-potentiating effect); assay type: in vivo, mouse; settings: 0.5 h, read-out: Potentiating Effect of Thiopental-induced Anesthesia ED50
Method: The pharmacological test was performed in the manner that to a mouse having the body weight of about 25 g was orally administered and, after 30 minutes, given through the vein sodium thiopental in an amount of 30 mg per 1 kg of the body weight, and then the duration time of loss of righting reflux was detected. In the above Table, the value is expressed in ED50 value, by which the duration time of loss of righting reflex is prolonged twice as long as that of the control having been given with thiopental only.

[2] = Acute toxicity in mouse (LD50); settings: in vivo
[3] = ip, 95% confidence limits in parentheses where given, read-out: Acute Toxicity in mouse LD50 (i.p.)
[4] = po, 95% confidence limits in parentheses, read-out: Acute Toxicity in mouse LD50 (p.o.)
[5] = mouse, oral, sodium thiopental 30 mg/kg i.v. after 30 minutes, ED50 = dose doubling duration of loss of righting reflex vs control, Litchfield-Wilcoxon, 95% confidence limits in parentheses

SMILES: CN(C)CCCN1c2ccccc2Sc2ccc(Cl)cc21 [chlorpromazine, reference compound]
- ED50 ([1]; Mus musculus, po): 3.5 mg/kg
- LD50 [2, 3]: 105 mg/kg
- LD50 [2, 4]: 245 mg/kg

SMILES: Cc1ccc(N2CCN(CCc3c(C)nc4c(C)cccn4c3=O)CC2)cc1 [3-[2-(4-p-Tolyl-1-piperazinyl)ethyl]-2,9-dimethyl-4H-pyrido[1,2-a]pyrimidin-4-one]
- ED50 [1, 5]: 1.8 mg/kg
- LD50 [2, 3]: 100 to 300 mg/kg

SMILES: Cc1cccc(N2CCN(CCc3c(C)nc4cc(C)cc(C)n4c3=O)CC2)c1 [3-[2-(4-m-tolyl-1-piperazinyl)ethyl]-2,6,8-trimethyl-4H-pyrido[1,2-a]pyrimidin-4-one]
- ED50 [1, 5]: 1.7 mg/kg
- LD50 [2, 3]: 100 to 300 mg/kg

SMILES: Cc1ccn2c(=O)c(CCN3CCN(c4cccc(Cl)c4)CC3)c(C)nc2c1 [3-[2-(4-m-Chlorophenyl-1-piperazinyl)ethyl]-2,8-dimethyl-4H-pyrido[1,2-a]pyrimidin-4-one]
- ED50 [1, 5]: 0.92 mg/kg
- LD50 [2, 3]: 100 to 300 mg/kg
- LD50 [2, 4]: 635 mg/kg

SMILES: Cc1cccc(N2CCN(CCc3c(C)nc4cc(C)ccn4c3=O)CC2)c1 [3-[2-(4-m-tolyl-1-piperazinyl)ethyl]-2,8-dimethyl-4H-pyrido[1,2-a]pyrimidin-4-one]
- ED50 [1, 5]: 0.8 mg/kg
- LD50 [2, 3]: 100 to 300 mg/kg
- LD50 [2, 4]: 480 mg/kg

SMILES: COc1cccc(N2CCN(CCc3c(C)nc4cc(C)ccn4c3=O)CC2)c1 [3-[2-(4-m-Methoxyphenyl-1-piperazinyl)ethyl]-2,8-dimethyl-4H-pyrido[1,2-a]pyrimidin-4-one]
- ED50 [1, 5]: 0.7 mg/kg
- LD50 [2, 3]: 100 to 300 mg/kg

SMILES: Cc1cccc(N2CCN(CCc3c(C)nc4c(C)cccn4c3=O)CC2)c1 [3-[2-(4-m-Tolyl-1-piperazinyl)ethyl]-2,9-dimethyl-4H-pyrido[1,2-a]pyrimidin-4-one]
- ED50 [1, 5]: 1.25 mg/kg
- LD50 [2, 3]: 100 to 300 mg/kg

SMILES: Cc1ccn2c(=O)c(CCN3CCN(c4ccc(Cl)cc4)CC3)c(C)nc2c1 [3-[2-(4-p-Chlorophenyl-1-piperazinyl)ethyl]-2,8-dimethyl-4H-pyrido[1,2-a]pyrimidin-4-one]
- ED50 [1, 5]: 2.9 mg/kg
- LD50 [2, 3]: 100 to 300 mg/kg
